# Molecular target: T1, human SSTR5 (Homo sapiens, UniProt P35346)
# T1 construct: expressed in transfected cells
# Assay: Evaluation of human SSTR5 antagonist activity using intracellular cAMP concentration as index
# Format: cell-based
# Details: 1 μM test compound; CHO (dhfr-) cells stably expressing human SSTR5; 0.1 nM somatostatin 28, 0.3 μM forskolin; cAMP HTRF; read-out: Inhibition rate against SSTR5 at 1 μM
# Protocol: Evaluation of Human SSTR5 Antagonist Activity Using Intracellular cAMP Concentration as Index
# The intracellular cAMP concentration was measured using HTRF cAMP dynamic 2 kit (Cisbio Bioassays). Each test compound diluted with an assay buffer (HBSS (Invitrogen Corp.) containing 5 mM HEPES (pH 7.5) (Invitrogen Corp.), 0.1% fatty-acid free BSA (Sigma-Aldrich Corp.), and 500 μM IBMX (Wako Pure Chemical Industries, Ltd.)) was added at a concentration of 2 μL/well to a 384-well white plate (Greiner Bio-One Co., Ltd.) to give the final concentration of 1 μM. A frozen stock of CHO (dhfr-) cells stably expressing the human SSTR5 gene (Accession No. NM_001053) was thawed in a thermostat bath of 37° C. and suspended in a subculture medium (MEM alpha (Wako Pure Chemical Industries, Ltd.), 10% dialyzed serum (Gemini Bio-Products), and 50 μg/mL gentamicin (Invitrogen Corp.). After centrifugation of the cell suspension, the cells were resuspended in an assay buffer and added at a concentration of 2 μL/well (about 4,000 cells/well) to the plate. The compound and the cells were incubated for 15 minutes, and then, an assay buffer containing 0.1 nM (final concentration) somatostatin 28 (Toray Research Center) and 0.3 μM (final concentration) forskolin (Wako Pure Chemical Industries, Ltd.) was added thereto at a concentration of 2 μL/well, followed by incubation at room temperature for 30 minutes. cAMP-d2 and anti-cAMP-cryptate were each added thereto at a concentration of 3 μL/well. The plate was left standing at room temperature for 60 minutes. Then, the fluorescence resonance energy transfer (FRET) intensity was measured using Multi-label reader Envision (PerkinElmer). The FRET intensity of the wells supplemented with the test compound group was converted to a cAMP concentration using a calibration curve prepared from the FRET intensity of a well group containing an assay buffer supplemented with an arbitrary concentration of cAMP. The inhibitory activity of each compound was calculated according to the following expression: Inhibitory activity (%)=(C−B)/(A−B)×100 A: cAMP concentration calculated from the wells supplemented with 0.3 μM forskolin B: cAMP concentration calculated from the wells supplemented with 0.3 μM forskolin and 0.1 nM somatostatin 28 C: cAMP concentration calculated from the wells supplemented with 0.3 μM forskolin, 0.1 nM somatostatin 28, and 1 μM test compound
# T1 sequence (P35346 whole entry): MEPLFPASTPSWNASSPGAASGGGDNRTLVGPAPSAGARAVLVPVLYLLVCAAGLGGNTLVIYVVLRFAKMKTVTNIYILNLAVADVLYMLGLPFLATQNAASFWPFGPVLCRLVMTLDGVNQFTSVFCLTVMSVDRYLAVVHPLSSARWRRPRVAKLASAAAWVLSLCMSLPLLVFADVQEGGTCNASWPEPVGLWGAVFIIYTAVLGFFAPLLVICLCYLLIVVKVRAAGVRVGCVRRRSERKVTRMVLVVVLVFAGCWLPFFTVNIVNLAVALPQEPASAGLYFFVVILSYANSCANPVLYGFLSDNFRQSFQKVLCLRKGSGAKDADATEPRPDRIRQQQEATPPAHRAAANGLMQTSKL
row,inhibition at 1 µM [%],SMILES
1,132,"CCOc1cc(-c2ccc(F)cc2)c(C2CC2)cc1CN1CCC(N2CCc3nc(C)c(C(=O)O)cc3C2=O)CC1 [Example 5, 6-(1-((2-Cyclopropyl-5-ethoxy-4′-fluorobiphenyl-4-yl)methyl)piperidin-4-yl)-2-methyl-5-oxo-5,6,7,8-tetrahydro-1,6-naphthyridine-3-carboxylic acid]"
2,112,"CCCc1nc2c(cc1C(=O)O)C(=O)N(C1CCN(Cc3cc(C4CC4)c(-c4ccc(F)c(F)c4)cc3OC(C)C)CC1)CC2 [Example 39, 6-(1-((2-Cyclopropyl-3′,4′-difluoro-5-isopropoxybiphenyl-4-yl)methyl)piperidin-4-yl)-5-oxo-2-propyl-5,6,7,8-tetrahydro-1,6-naphthyridine-3-carboxylic acid]"
3,136,"CCCc1nc2c(cc1C(=O)O)C(=O)N(C1CCN(Cc3cc(C4CC4)c(-c4ccc(F)cc4)cc3OC)CC1)CC2 [Example 42, 6-(1-((2-Cyclopropyl-4′-fluoro-5-methoxybiphenyl-4-yl)methyl)piperidin-4-yl)-5-oxo-2-propyl-5,6,7,8-tetrahydro-1,6-naphthyridine-3-carboxylic acid]"
4,148,"CCCc1nc2c(cc1C(=O)O)C(=O)N(C1CCN(Cc3cc(C4CC4)c(-c4ccc(F)cc4F)cc3OC(C)C)CC1)CC2 [Example 40, 6-(1-((2-Cyclopropyl-2′,4′-difluoro-5-isopropoxybiphenyl-4-yl)methyl)piperidin-4-yl)-5-oxo-2-propyl-5,6,7,8-tetrahydro-1,6-naphthyridine-3-carboxylic acid]"
5,108,"CCOc1cc(CN2CCC(N3CCc4nc(C(=O)O)ccc4C3=O)CC2)cc(OCC)c1-c1ccc(F)cc1 [Example 53, 6-(1-((2,6-Diethoxy-4′-fluorobiphenyl-4-yl)methyl)piperidin-4-yl)-5-oxo-5,6,7,8-tetrahydro-1,6-naphthyridine-2-carboxylic acid]"
6,102,"CCOc1cc(CN2CCC(N3CCc4ncc(C(=O)O)cc4C3=O)C2)cc(OCC)c1-c1ccc(F)cc1 (stereo not shown) [Example 34, 6-(1-((2,6-Diethoxy-4′-fluorobiphenyl-4-yl)methyl)pyrrolidin-3-yl)-5-oxo-5,6,7,8-tetrahydro-1,6-naphthyridine-3-carboxylic acid]"
7,92,"CCCc1nc2c(cc1C(=O)O)C(=O)N(C1CCN(Cc3cc(OCC)c(-c4ccc(F)c(F)c4)c(C4CC4)c3)CC1)CC2 [Example 62, 6-(1-((2-Cyclopropyl-6-ethoxy-3′,4′-difluorobiphenyl-4-yl)methyl)piperidin-4-yl)-5-oxo-2-propyl-5,6,7,8-tetrahydro-1,6-naphthyridine-3-carboxylic acid]"
8,88,"Cc1nc2c(cc1C(=O)O)C(=O)N(C1CCN(Cc3cc(C4CC4)c(-c4ccc(F)cc4)cc3OC(C)C)CC1)CC2 [Example 7, 6-(1-((2-Cyclopropyl-4′-fluoro-5-isopropoxybiphenyl-4-yl)methyl)piperidin-4-yl)-2-methyl-5-oxo-5,6,7,8-tetrahydro-1,6-naphthyridine-3-carboxylic acid]"
9,118,"CCOc1cc(-c2ccc(F)cc2)c(C2CC2)cc1CN1CCC(N2CCc3ccc(C(=O)O)nc3C2=O)CC1 [Example 31, 7-(1-((2-Cyclopropyl-5-ethoxy-4′-fluorobiphenyl-4-yl)methyl)piperidin-4-yl)-8-oxo-5,6,7,8-tetrahydro-1,7-naphthyridine-2-carboxylic acid]"
10,110,"CCOc1cc(C2CCC2)c(C2CC2)cc1CN1CCC(N2CCc3ncc(C(=O)O)cc3C2=O)CC1 [Example 30, 6-(1-(4-Cyclobutyl-5-cyclopropyl-2-ethoxybenzyl)piperidin-4-yl)-5-oxo-5,6,7,8-tetrahydro-1,6-naphthyridine-3-carboxylic acid]"
11,99,"CCCc1nc2c(cc1C(=O)O)C(=O)N(C1CCN(Cc3cc(C4CC4)c(C4CCC4)cc3OC(C)C)CC1)CC2 [Example 41, 6-(1-(4-Cyclobutyl-5-cyclopropyl-2-isopropoxybenzyl)piperidin-4-yl)-5-oxo-2-propyl-5,6,7,8-tetrahydro-1,6-naphthyridine-3-carboxylic acid]"
12,123,"CCOc1nc(-c2ccc(F)cc2)c(C2CC2)cc1CN1CCC(N2CCc3nc(CC)c(C(=O)O)cc3C2=O)CC1 [Example 33, 6-(1-((5-Cyclopropyl-2-ethoxy-6-(4-fluorophenyl)pyridin-3-yl)methyl)piperidin-4-yl)-2-ethyl-5-oxo-5,6,7,8-tetrahydro-1,6-naphthyridine-3-carboxylic acid]"
13,91,"CCOc1cc(CN2CCC(N3CCc4nc(C)c(C(=O)O)cc4C3=O)CC2)cc(C2CC2)c1-c1ccc(F)cc1 [Example 1, 6-(1-((2-Cyclopropyl-6-ethoxy-4′-fluorobiphenyl-4-yl)methyl)piperidin-4-yl)-2-methyl-5-oxo-5,6,7,8-tetrahydro-1,6-naphthyridine-3-carboxylic acid]"
14,115,"CCOc1cc(-c2ccc(F)cc2)c(C2CC2)cc1CN1CCC(N2CCc3nc(C4CC4)c(C(=O)O)cc3C2=O)CC1 [Example 3, 2-Cyclopropyl-6-(1-((2-cyclopropyl-5-ethoxy-4′-fluorobiphenyl-4-yl)methyl)piperidin-4-yl)-5-oxo-5,6,7,8-tetrahydro-1,6-naphthyridine-3-carboxylic acid]"
15,97,"CCCc1nc2c(cc1C(=O)O)C(=O)N(C1CCN(Cc3cc(C4CC4)c(-c4ccc(F)cc4)cc3OC(C)C)CC1)CC2 [Example 37, 6-(1-((2-Cyclopropyl-4′-fluoro-5-isopropoxybiphenyl-4-yl)methyl)piperidin-4-yl)-5-oxo-2-propyl-5,6,7,8-tetrahydro-1,6-naphthyridine-3-carboxylic acid]"
16,123,"CCOc1cc(-c2ccc(F)cc2)c(C2CC2)cc1CN1CCC(N2CCc3nc(C(=O)O)ccc3C2=O)CC1 [Example 54, 6-(1-((2-Cyclopropyl-5-ethoxy-4′-fluorobiphenyl-4-yl)methyl)piperidin-4-yl)-5-oxo-5,6,7,8-tetrahydro-1,6-naphthyridine-2-carboxylic acid]"
17,96,"CCCOc1cc(CN2CCC(N3CCc4nc(CCC)c(C(=O)O)cc4C3=O)CC2)cc(C2CC2)c1-c1ccc(F)cc1 [Example 61, 6-(1-((2-Cyclopropyl-4′-fluoro-6-propoxybiphenyl-4-yl)methyl)piperidin-4-yl)-5-oxo-2-propyl-5,6,7,8-tetrahydro-1,6-naphthyridine-3-carboxylic acid]"
18,86,"CCCc1nc2c(cc1C(=O)O)C(=O)N(C1CCN(Cc3cc(C4CC4)c(-c4ccc(F)cc4F)c(F)c3OC)CC1)CC2 [Example 65, 6-(1-((6-Cyclopropyl-2,2′,4′-trifluoro-3-methoxybiphenyl-4-yl)methyl)piperidin-4-yl)-5-oxo-2-propyl-5,6,7,8-tetrahydro-1,6-naphthyridine-3-carboxylic acid]"
19,94,"CCCc1nc2c(cc1C(=O)O)C(=O)N(C1CCN(Cc3cc(OCC)c(-c4ccc(F)cc4)c(C4CC4)c3)CC1)CC2 [Example 36, 6-(1-((2-Cyclopropyl-6-ethoxy-4′-fluorobiphenyl-4-yl)methyl)piperidin-4-yl)-5-oxo-2-propyl-5,6,7,8-tetrahydro-1,6-naphthyridine-3-carboxylic acid]"
20,99,"CCOc1cc(CN2CCC(N3CCc4nc(CC)c(C(=O)O)cc4C3=O)CC2)cc(C2CC2)c1-c1ccc(F)cc1 [Example 45, 6-(1-((2-Cyclopropyl-6-ethoxy-4′-fluorobiphenyl-4-yl)methyl)piperidin-4-yl)-2-ethyl-5-oxo-5,6,7,8-tetrahydro-1,6-naphthyridine-3-carboxylic acid]"
21,95,"CCCc1nc2c(cc1C(=O)O)C(=O)N(C1CCN(Cc3cc(C4CC4)c(-c4ccc(F)c(F)c4)cc3OCC)CC1)CC2 [Example 43, 6-(1-((2-Cyclopropyl-5-ethoxy-3′,4′-difluorobiphenyl-4-yl)methyl)piperidin-4-yl)-5-oxo-2-propyl-5,6,7,8-tetrahydro-1,6-naphthyridine-3-carboxylic acid]"
22,103,"CCCc1nc2c(cc1C(=O)O)C(=O)N(C1CCN(Cc3cc(C4CC4)c(C4CC4)cc3OCC)CC1)CC2 [Example 51, 6-(1-(4,5-Dicyclopropyl-2-ethoxybenzyl)piperidin-4-yl)-5-oxo-2-propyl-5,6,7,8-tetrahydro-1,6-naphthyridine-3-carboxylic acid]"

# From US9751878B2, “Tetrahydronaphthyridine somatostatin receptor 5 antagonists” (Takeda Pharmaceutical Company Limited, priority 2013, dated 2017)
